Patent publication US11357770B2, “Method of treating immunoglobulin light chain amyloidosis” (ALTERITY THERAPEUTICS LIMITED, priority 2016, dated 2022)
Entries after “also recorded” stand apart in the source; their conditions may differ.

Key:
C. elegans [1] = test: C. elegans pharyngeal pumping rate (LC-induced pharyngeal dysfunction); details: for ROS generation and pumping dysfunction caused by cardiotoxic LC: 2 nM 1033, 50 μM TETRA or 5 mM NAC with 100 μg/mL LC
Protocol: Worms were fed for 2 h with 100 μg/mL H7-BJ in the absence or presence of 0-25 nM 1033. Control worms received vehicle alone (dotted line). Each value is the mean±SE, n=30. […] (B) Images obtained from the overlay of a contrast phase and MitoSOX fluorescence (arrows). Scale bar 50 μm. (C) The effects of cardiotoxic LC, 1033, cardotoxic LC+1033, H2O2 and H2O2+1033 on pharyngeal function. (D) The effects of Chelex® and EDTA on LC induced pharyngeal dysfunction.
MM2-BJ (Myeloma) and H7-BJ (Cardiotoxic LC) and in 5 mM PBS, pH 7.4, were administered to worms (100 worms/100 μL) at 100 μg/mL alone or with 50 μM TETRA or 5 mM NAC. Control worms received vehicle alone (Vehicle). After incubation for 2 h in the absence of OP50 E. coli, worms were plated on NGM plates seeded with bacteria.
Bristol N2 strain, transgenic CL2070 dvIs70 Is[hsp-16.2::gfp; rol-6(su1006)], CF1553 muls84 [(pAD76) sod-3p::GFP+rol-6] and TJ356, zls356Is[daf-16::daf-16-gfp; rol-6] were obtained from the Caenorhabditis elegans Genetic Center (CGC, University of Minnesota, USA) and propagated at 20° C. on solid Nematode Growth Medium (NGM) seeded with E. coli OP50 (from CGC) for food. The effect of LC on pharyngeal behaviour was investigated (Diomede et al. 2014). Briefly, ancestral N2 and transgenic CL2070, TJ356 and CF1553 worms were incubated with 100 μg/mL LC listed in Table 1A (100 worms/100 μL) in 5 mM PBS, pH 7.4. Control worms were incubated with 5 mM PBS, pH 7.4 (Vehicle) only. After 2 h of incubation on orbital shaking, worms were transferred onto NGM plates seeded with OP50 E. coli. The pharyngeal pumping rate, measured by counting the number of times the terminal bulb of the pharynx contracted over a 1-minute interval, was scored 20 h later. Experiments were also performed by feeding worms for 2 h with 100 μg/mL of H6-BJ, H7-BJ, H18-BJ, MM2-BJ, MM4-BJ or MM7-BJ alone or with 125 μM copper (as CuSO4).
The experimental conditions of Example 4 were repeated with cardiotoxic LC H7-BJ with or without 1033, Chelex® resin or EDTA as well as 1033, H2O2 and H2O2 together with 1033.

DAF-16 = test: DAF-16::GFP nuclear translocation in TJ356 nematodes; type: in vivo, Caenorhabditis elegans; details: 100 μg/mL H7-BJ 2 h with 2 nM 1033, 50 μM TETRA or 5 mM NAC
Protocol: (A) Image of DAF-16::GFP expression in control vehicle-fed and (B) cardiotoxic LC-fed worms (100 μg/mL H7-BJ for 2 h). (C-D) The subcellular distribution of DAF-16 expression in worms fed 2 h: vehicle, 100 μg/mL H7-BJ with or without 2 nM 1033, 50 μM tetracycline (TETRA) or 5 mM N-acetyl-cysteine (NAC). According to DAF-16 localization worms were divided into two phenotypes including “cytosolic” and “nuclear”. The percentage of DAF-16 localization in respect to vehicle fed worms was calculated based on 3 experiments, N=100. Mean±SE. **p<0.01 vs. vehicle, ºp<0.05 and ººp<0.01 vs. cardiotoxic LC, one-way ANOVA and Bonferroni's post hoc test. (E/F) Transgenic worms were fed with 1 mM H2O2 for 30 minutes as a positive control. DAF-16::GFP distribution (E) and HSP-16.2 and SOD-3 expression visualized by GFP-fluorescence (F).
(§1) DAF-16::green fluorescent protein (GFP) nuclear translocation was evaluated in TJ356 nematodes. Pharyngeal expression of HSP-16.2::GFP and SOD-3::GFP was determined in CL2070 and CF1553 worms, respectively. […] Organisms were scored as positive for nuclear localization when green foci were observed throughout the entire body from head to tail and as cytosolic when DAF-16::GFP was diffuse. The number of worms with each level of translocation were counted (at least 100 worms/condition). […] Average pixel intensity values were calculated by sampling images of different animals. […]

H7-BJ cardiotoxic LC = test: Amplex Red H2O2 assay; type: biochemical, human; details: 100 μg/mL H7-BJ incubated with 2 nM 1033, room temperature
Protocol: H7-BJ and MM2-BJ proteins (100 μg/mL) in 10 mM sodium phosphate buffer (PB), pH 7.4, were incubated at room temperature in the presence or absence of 50 μM Chelex® resin or 2 nM 5,7-dichloro-8-hydroxy-2-(dimethylaminomethyl)quinoline (1033). Different times after incubation (0-2 h), 2 μL of solutions were put into a 96-well black plate, diluted 1:100 (vol/vol) with 10 mM PBS, pH 7.4, and the amount of H2O2 generated was determined by using the Amplex Red assay kit (Molecular probes, Life Technologies). To this end, 50 μL working solution of 100 μM Amplex Red and 200 mU/mL horseradish peroxidase in 10 mM PB, pH 7.4, was added to each well. The plate was shaken and incubated at room temperature for 30 min, protected from light. The fluorescence was read on a Tecan Infinite M200 microplate reader (Tecan, Austria) at excitation wavelength of 563 nm and emission wavelength of 587 nm. Averages and standard deviations were converted to H2O2 concentrations.

C. elegans [2] = test: Endogenous metal levels (Cu, Zn, Fe) in C. elegans; type: in vivo, Caenorhabditis elegans; details: 100 μg/mL H7-BJ + 2 nM 1033
Protocol: FIG. 3 provides graphical representations of endogenous metal levels and the effects of added copper on C. elegans pharyngeal function. Worms fed with 100 μg/mL MM2-BJ (myeloma), 100 μg/mL cardiotoxic LC H7-BJ, cardiotoxic LC+ 2 nM 1033, or metal free water (vehicle) were analysed for the amount of endogenous Cu (A), Zn and Fe (B).

C. elegans N2 worms = test: C. elegans life span experiments; type: in vivo, Caenorhabditis elegans
Protocol: N2 worms (100 worms/100 μL), at L3 larval stage, were fed for 2 h 100 μg/mL of H7-BJ alone or with 2 nM 1033. Worms were then transferred onto fresh NGM plates seeded with E. coli in the presence of the same drug concentration. Control worms were exposed, under the same conditions, to vehicle alone. After 20 h nematodes were transferred to fresh NGM plates seeded with bacteria and the number of live worms was scored (considered as day 0). To avoid overlapping generations, the worms were then transferred every day, in the absence of fluorodeoxyuridine, until they stopped laying eggs. To test the effect of repeated administration of 1033, worms were fed for 2 h 100 μg/mL of H7-BJ and 2 nM 1033 and then transferred onto fresh NGM plates seeded with E. coli in the presence of the same drug concentration. Then nematodes were transferred every day, in a new NGM plate in the presence of freshly dissolved 2 nM 1033. The number of live worms was determined for each consecutive day until all worms were dead.

HSP-16.2 = test: Pharyngeal expression of HSP-16.2::GFP in CL2070 worms; type: in vivo, Caenorhabditis elegans; details: 100 μg/mL H7-BJ + 2 nM 1033, CL2070 worms
Protocol: (§2) Transgenic worms were fed for 2 h with: Vehicle (i, 5 mM PBS, pH 7.4) 100 μg/mL MM2-BJ (ii, Myeloma), 100 μg/mL H7-BJ (iii, Cardiotoxic LC), or 2 nM 1033 (iv, Cardiotoxic LC+ 1033). (A) Images of the HSP-16.2 expression as overlays of GFP-fluorescence and light microscopy in CL2070 transgenic worms. Scale bar 50 μm. (C) Images of SOD-3 expression as GFP-fluorescence (arrows) in CF1553 transgenic worms. Scale bar 50 μm. Quantified GFP intensity in (B) CL2070 and (D) CF1553 worms in response to treatments. Fluorescence intensity in each group was calculated as mean grey value+SE based on 3 experiments, N=25. **p<0.01 vs. Vehicle and ºp<0.05 and ººp<0.01 vs. Cardiotoxic LC, one-way ANOVA and Bonferroni's post hoc test.
as §1, with “animals. Mean pixel intensity for each experimental group was calculated using Cell-F software (Olympus).” for “animals.”

SOD-3 = test: Pharyngeal expression of SOD-3::GFP in CF1553 worms; type: in vivo, Caenorhabditis elegans; details: 100 μg/mL H7-BJ + 2 nM 1033, CF1553 worms
Protocol: as §2
as §1, with “animals. Mean pixel intensity for each experimental group was calculated using Cell-F software (Olympus).” for “animals.”

C. elegans [3] = test: Pharyngeal function, drugs administered after damage by cardiotoxic LC; type: in vivo, Caenorhabditis elegans; details: H7-BJ 1.5 h
Protocol: Pharyngeal performance of worms fed 100 μg/mL H7-BJ (Cardiotoxic LC) for 1.5 h and then treated for 30 min with 20 µM tetracycline (TETRA), 0.5-2 nM 1033 alone or together with 20 μM TETRA. Control worms fed vehicle alone. **p<0.001, *p<0.005 vs. vehicle, ººp<0.001 vs. Cardiotoxic LC, one-way ANOVA and Bonferroni's post hoc test. §§ p<0.01 significant interaction vs. worms fed Cardiotoxic LC+ 0.5 nM 1033, two-ways ANOVA and Bonferroni's post hoc test.
To reflect circumstances most likely encountered in the clinic drugs were administered to worms when the pharynx was already damaged by cardiotoxic LC. […] Then drugs were administered for 30 min and the pumping rate was scored.
Feeding experiments in which nematodes were fed H7-BJ for 1.5 h to generate pharangeal dysfunction, subsequently 20 μM TETRA, 0.5 nM 1033, 2 nM 1033, 20 μM TETRA and 0.5 nM 1033.

Stability of the drug = type: physicochemical

IC50 (C. elegans [1]; Caenorhabditis elegans, read-out: IC50 value of TETRA (pharyngeal dysfunction)) [µM]	SMILES	ROS generation and pumping dysfunction caused by cardiotoxic LC (C. elegans [1])	effect on the pharyngeal pumping dysfunction caused by cardiotoxic LC (C. elegans [1]; 100 μg/mL H7-BJ with 50 μM TETRA or 5 mM NAC, pumping 20 h after plating)	activation (nuclear translocation) of DAF-16 induced by the cardiotoxic LC (DAF-16)	H2O2 (ROS) production by H7-BJ (H7-BJ cardiotoxic LC)	pharyngeal impairment caused by all cardiotoxic LC under investigation (C. elegans [1]; 2 nM 1033)	pumping rate, 1033 alone (C. elegans [1]; 1033 alone, no LC)	pharyngeal toxicity induced by exposure to exogenous H2O2 (C. elegans [1]; H2O2 + 1033)	cardiotoxic LC-induced elevation of copper levels in worms (C. elegans [2])	median survival (C. elegans N2 worms; H7-BJ + 2 nM/day 1033 (repeated administration), vehicle 13 days) [days]	protective effect on survival, single dose (C. elegans N2 worms; single dose of 1033 at 2 nM, H7-BJ-fed worms)	LC-induced HSP-16.2 protein expression in the pharynx (HSP-16.2)	LC-induced SOD-3 protein expression in the pharynx (SOD-3)	maximal recovery of pharangeal function (C. elegans [3]; then 2 nM 1033) [%]	restoring pharangeal function after damage by H7-BJ (C. elegans [3]; then 20 μM TETRA or 0.5 nM 1033 alone)	restoring pharyngeal function after damage by H7-BJ (C. elegans [3]; then drug 30 min, 2 nM 1033 or 20 μM TETRA)	stability under physiological conditions and in a variety of standard solvents (Stability of the drug)
20	CN(C)[C@@H]1C(O)=C(C(N)=O)C(=O)[C@@]2(O)C(O)=C3C(=O)c4c(O)cccc4[C@@](C)(O)[C@H]3C[C@@H]12 [TETRA, tetracycline, reference compound]	–	–	–	–	–	–	–	–	–	–	–	–	–	–	–	–
–	CC(=O)N[C@@H](CS)C(=O)O [NAC, N-acetyl cysteine, reference compound]	capable of neutralizing	protective effect	not observed	–	–	–	–	–	–	–	–	–	–	–	–	–
–	CN(C)Cc1ccc2c(Cl)cc(Cl)c(O)c2n1 [compound 1033, 5,7-dichloro-8-hydroxy-2-(dimethylaminomethyl)quinoline]	capable of neutralizing	–	counteracted	significantly attenuated; also recorded: did prevent the increase	completely abolished	did not affect	did not counteract	counteracted	13	No protective effect	significantly reduced	significantly reduced	53	no effect	restoring normal pharyngeal function	extremely stable
